Results from publication PMC6127852 (Journal of Enzyme Inhibition and Medicinal Chemistry, 2018).
≈ marks a conversion by molar mass, not a printed value.

Tests used:
[1] = test system: S. aureus ATCC 25923; assay: Broth microdilution MIC, S. aureus ATCC 25923; assay type: cell-based; conditions: Staphylococcus aureus, ATCC25923; Table S2
Protocol: (§1) The compounds were evaluated for their in vitro anti-bacterial activity against Gram-positive bacteria: S. aureus (ATCC 25923), MRSA, methicillin-sensitive S. aureus (MSSA), E. faecalis, vancomycin-resistant E. faecium (VREF), and Gram-negative bacteria: E. coli (ATCC 25925), P. aeruginosa (ATCC 27853), A. baumannii (ATCC 19606) and ESBL-producing K. pneumoniae (ATCC 27736). Standard broth microdilution method as recommended in guidelines of Clinical and Laboratory Standards Institute[61] ^, [65] ^, [66] was applied and the minimum inhibitory concentration (MIC) of compounds was tested. In short, testing was performed in U-bottomed 96-well sterile plastic microdilution trays (Falcon 3077, Becton Dickinson Labware, Franklin Lakes, NJ) in cation (Ca^2+ and Mg^2+) adjusted Mueller–Hinton broth medium (Becton Dickinson and Co., Cockeysville, MD). All testings were performed in triplicate.
(§2) The in vitro anti-bacterial activity of 5-amidinobenzimidazoles 7a–7e, 8a–8e, and 9a–9e was tested against Gram-positive bacteria including S. aureus (ATCC 25923), Enterococcus faecalis (ATCC 29212), and Gram-negative bacteria including E. coli (ATCC 25925), K. pneumoniae (ATCC 700803), P. aeruginosa (ATCC 27853), and Acinetobacter baumannii (ATCC 19606).

[2] = test system: S. aureus MRSA; assay: Broth microdilution MIC, MRSA clinical strain; assay type: cell-based; conditions: Staphylococcus aureus, antibiotic-resistant clinical strain
Protocol: as §1

[3] = test system: E. faecalis ATCC 29212; assay: Broth microdilution MIC, E. faecalis ATCC 29212; assay type: cell-based; conditions: Enterococcus faecalis, ATCC29212; Table S2
Protocol: as §1, §2

[4] = test system: E. faecium VRE; assay: Broth microdilution MIC, VRE clinical strain; assay type: cell-based; conditions: Enterococcus faecium
Protocol: as §1

[5] = test system: S. aureus MSSA; assay: Broth microdilution MIC, MSSA clinical strain; assay type: cell-based; conditions: Staphylococcus aureus
Protocol: as §1

[6] = test system: P. aeruginosa ATCC 27853; assay: Broth microdilution MIC, P. aeruginosa ATCC 27853; assay type: cell-based; conditions: Pseudomonas aeruginosa, ATCC27853; Table S2
Protocol: as §1, §2

[7] = test system: E. coli ATCC 25925; assay: Broth microdilution MIC, E. coli ATCC 25925; assay type: cell-based; conditions: Escherichia coli, ATCC25925; Table S2
Protocol: as §1, §2

[8] = test system: K. pneumonia ATCC 700803; assay: Broth microdilution MIC, K. pneumoniae ATCC 700803; assay type: cell-based; conditions: Klebsiella pneumoniae, ATCC700803; Table S2
Protocol: as §1, §2

[9] = test system: A. baumannii ATCC 19606; assay: Broth microdilution MIC, A. baumannii ATCC 19606; assay type: cell-based; conditions: Acinetobacter baumannii, ATCC19606; Table S2
Protocol: as §1, §2

[10] = test system: polyG-polyC (polyC-polyG) (RNA, polymer) G/C; assay: UV-Vis titration, Scatchard; conditions: PBS; for log Ks: I = 0.05 M (Table 1 says I = 0.015 M), cations not specified, I = 0.015 M (Methods: 0.05 M)
[11] = test system: calf thymus ctDNA; assay: UV–Vis titration with ctDNA (Scatchard); assay type: binding; conditions: for Hypochromic effect H/%, ctDNA: UV–Vis titration, calculated by Scatchard equation; for Hypochromic effect H/%, ctDNA / log Ks, ctDNA: PBS, pH 7; for log Ks, ctDNA: binding constant, Scatchard
Protocol: (§3) Polynucleotides were purchased as follows: polyG–polyC, polyA–polyU (Sigma-Aldrich, St. Louis, MO), calf thymus ctDNA (Aldrich). Polynucleotides were dissolved in PBS buffer, I = 0.05 mol dm^−3, pH 7.0. The calf thymus ctDNA was additionally sonicated and filtered through a […] filter. The polynucleotide concentration was spectroscopically determined as the concentration of nucleobases.
(§4) All UV–Vis absorbance measurements were conducted on a Perkin Elmer Lambda 25 spectrophotometer (Perkin Elmer, Waltham, MA). A quartz cell with a 1 cm path length was used for all absorbance studies. Compound stock solutions were 1 mM. The DNA/RNA at increasing ratios was then titrated into the compound buffer solution (1.48 × 10^−5 mol dm^−3) and the corresponding absorption spectra were recorded under the same conditions. All data were graphed and analysed using Origin software version 9.0 (OriginLab Corporation, Northampton, MA). The stability constants (Ks) and [bound compound]/[polynucleotide phosphate] ratios (n) were calculated according to the Scatchard Equation[63] ^, [64]. Values for Ks and n given in Table 1 all have satisfying correlation coefficients (0.99).
(§5) The binding constants logKs and the density of the binding sites n were calculated using Scatchard plot analysis. In addition, the binding constants Ks for compounds 8b and 8e were calculated only for titration data taken at the r ≥ 0.1, because below that ratio changes in absorption maxima were too small for accurate calculation (ΔA ≤ 0.04) (Table 1). The binding constants Ks and ratios n obtained by processing UV–Vis titration data using the Scatchard equation are summarised in Table 1.

[12] = test system: bloodstream form T. brucei (strain 221); assay: Anti-trypanosomal screening, resazurin; assay type: cell-based; conditions: Trypanosoma brucei, mean of triplicate ± SEM
Protocol: Bloodstream form T. brucei (strain 221) were cultured in modified Iscove’s medium, as outlined[67] and trypanocidal assays were performed using 96-well microtitre plates. […] Resazurin was added after 48 h, the plates incubated for a further 16 h, and then read in a Spectramax plate reader (Molecular Devices Corporation, San Jose, CA). The data were analysed using GraphPad Prism (GraphPad, La Jolla, CA). Each drug concentration was tested in triplicate.

[13] = target: polyC-polyG; assay: UV–Vis titration with polyC-polyG (Scatchard); assay type: binding; conditions: PBS, pH 7; for log Ks, polyC-polyG: binding constant, Scatchard; for Hypochromic effect H/%, polyC-polyG: UV–Vis titration, calculated by Scatchard equation
Protocol: as §3, §4, §5

[14] = test system: ctDNA; assay: Thermal melting (ΔTm) of ctDNA; assay type: binding, calf; conditions: PBS, pH 7; for ΔTm, ctDNA, r = 0.3: r = [compound]/[polynucleotide] 0.3, error ±0.5 °C
Protocol: (§6) T m experiments were conducted with a Perkin Elmer Lambda 25 spectrophotometer in 1 cm quartz cuvettes. The absorbance of the DNA/RNA-compound complex was monitored at 260 nm as a function of temperature. The absorbance of the ligands was subtracted from every curve, and the absorbance scale was normalised. The ΔT m values were calculated by subtracting T m of the free nucleic acid from T m of the complex. Every reported ΔT m value was the average of at least two measurements. The error of ΔT m is ±0.5 °C. All data were graphed and analysed using Origin software version 9.0.
(§7) Denaturation experiments were carried out at different amounts of the compounds (r = 0.1, 0.3, 0.5, and 0.7 eq; r = [compound]/[polynucleotide]) with ctDNA and polyA-polyU.

[15] = test system: polyA-polyU; assay: UV–Vis titration with polyA-polyU (Scatchard); assay type: binding; conditions: PBS, pH 7; for Hypochromic effect H/%, polyA-polyU: UV–Vis titration, calculated by Scatchard equation; for log Ks, polyA-polyU: binding constant, Scatchard
Protocol: as §3, §4, §5

[16] = test system: polyA-polyU; assay: Thermal melting (ΔTm) of polyA-polyU; assay type: binding; conditions: for ΔTm, polyA-polyU, r = 0.1: PBS, pH 7; for ΔTm, polyA-polyU, r = 0.3 / ΔTm, polyA-polyU, r = 0.5: first melting midpoint
Protocol: as §6, §7

[17] = test system: polyA-polyU (RNA, polymer) A/U; assay: UV-Vis titration, Scatchard; conditions: PBS; for log Ks: I = 0.05 M (Table 1 says I = 0.015 M), cations not specified, I = 0.015 M (Methods: 0.05 M)
[18] = test system: polyA-polyU (RNA, polymer) A/U; assay: UV melting at 260 nm; conditions: PBS, I = 0.05 M, cations not specified, pH 7, r = 0.3 [compound]/[polynucleotide]
[19] = pH 7, changes too small for accurate calculation, compound 14.8 µM

SMILES | MIC [1] [µg/mL] | MIC [2] [µg/mL] | MIC [3] [µg/mL] | MIC [4] [µg/mL] | MIC [5] [µg/mL] | MIC [6] [µg/mL] | MIC [7] [µg/mL] | MIC [8] [µg/mL] | MIC [9] [µg/mL] | Hypochromic effect H/%, ctDNA [11] [%] | IC50 [12] [µM] | IC90 [12] [µM] | log Ks, polyC-polyG [13] | ΔTm, ctDNA, r = 0.5 [14] [°C] | ΔTm, ctDNA, r = 0.7 [14] [°C] | ΔTm, ctDNA, r = 0.3 [14] [°C] | Hypochromic effect H/%, polyA-polyU [15] [%] | log Ks, polyA-polyU [15] | ΔTm, polyA-polyU, r = 0.1 [16] [°C] | ΔTm, polyA-polyU, r = 0.3 [16] [°C] | other results
CNC(C)C1CCC(N)C(OC2C(N)CC(N)C(OC3OCC(C)(O)C(NC)C3O)C2O)O1 (stereo not drawn) [Gentamicin, gentamicin, reference compound] | 0.125 (≈ 0.262 µM) | 0.25 (≈ 0.523 µM) | 8 (≈ 16.8 µM) | 0.25 (≈ 0.523 µM) | 0.125 (≈ 0.262 µM) |  |  |  |  |  |  |  |  |  |  |  |  |  |  |  | 
CC1(C)S[C@@H]2[C@H](NC(=O)[C@H](N)c3ccccc3)C(=O)N2[C@H]1C(=O)O [Ampicillin, ampicillin, reference compound] | 1 (≈ 2.86 µM) | 4 (≈ 11.4 µM) | 2 (≈ 5.72 µM) | 1 (≈ 2.86 µM) | 1 (≈ 2.86 µM) |  |  |  |  |  |  |  |  |  |  |  |  |  |  |  | 
O=C(O)c1cn(C2CC2)c2cc(N3CCNCC3)c(F)cc2c1=O [Ciprofloxacin, ciprofloxacin, reference compound] |  |  |  |  |  | 0.5 (≈ 1.51 µM) | 0.004 (≈ 0.0121 µM) | 0.06 (≈ 0.181 µM) | 0.06 (≈ 0.181 µM) |  |  |  |  |  |  |  |  |  |  |  | 
CC(C)NC(=N)c1ccc2[nH]c(-c3ccc(OCc4cn(Cc5ccccc5)nn4)cc3)nc2c1 [Compound 8d] | 64 (≈ 137 µM) | 32 (≈ 68.7 µM) | 128 (≈ 275 µM) | 64 (≈ 137 µM) | 64 (≈ 137 µM) | > 256 | > 256 | > 256 | > 256 | 41.2 | 12.9 ± 0.2 | 21.6 ± 0.4 | 5.54 | 3.32 | 3.63 | 1.76 | 53.8 | 6.13 | 0.91 | 0.51 | log Ks ([10]; pH 7, n fixed, per base): 5.54; log Ks, ctDNA [11]: 5.93; ΔTm, polyA-polyU, r = 0.5 [16]: 0.72 °C; log Ks ([17]; pH 7, per base): 6.13
COc1ccc(-n2cc(COc3ccc(-c4nc5ccc(C6=NCCN6)cc5[nH]4)cc3)nn2)cc1 |  |  |  |  |  |  |  |  |  |  |  |  |  |  |  |  |  |  |  |  | binding [10, 19]: weak; ΔTm ([18]; error ±0.5, biphasic, second midpoint 36.08, per base): 2.67 °C; log Ks ([17]; pH 7, n fixed, per base): 5.46
CC(C)NC(=N)c1ccc2[nH]c(-c3ccc(OCc4cn(CSc5ccccc5)nn4)cc3)nc2c1.Cl.Cl [Compound 8e, N-isopropyl-2–(4-((1-(phenylthiomethyl)-1H-1,2,3-triazol-4-yl)methoxy)phenyl)-1H-benz[d]imidazole-5-carboximidamide dihydrochloride] | 64 | 8 | 256 | 64 | 64 | > 256 | 256 | > 256 | > 256 | 44.2 | 13.5 ± 0.8 | 22.5 ± 0.3 | 7.20 | 1.72 | 1.71 | 2.22 | 47.2 | 5.96 | 0.52 | 0.23 | log Ks, ctDNA (range r ≥ 0.1) ([11]; footnote f: mixed binding mode, calculated in range r ≥ 0.1): 6.39; melting point: 152 to 154 °C; Hypochromic effect H/%, polyC-polyG [13]: 5.96%; ΔTm, polyA-polyU, r = 0.5 [16]: 0.26 °C
CC(C)NC(=N)c1ccc2[nH]c(-c3ccc(OCc4cn(-c5ccccc5)nn4)cc3)nc2c1 [Compound 8a] | 128 (≈ 283 µM) | 8 (≈ 17.7 µM) | 256 (≈ 567 µM) | 128 (≈ 283 µM) | 128 (≈ 283 µM) | > 256 | 256 (≈ 567 µM) | > 256 | > 256 | 41.0 | 7.1 ± 0.7 | 16.7 ± 1.2 | 6.17 | 3.94 | 4.25 | 3.35 | 46.5 | 5.87 | 0.32 | 0.64 | log Ks ([10]; pH 7, n fixed, per base): 6.17; log Ks, ctDNA [11]: 6.17; ΔTm ([18]; error ±0.5, per base): 0.64 °C; Hypochromic effect H/%, polyC-polyG [13]: 5.86%; ΔTm, polyA-polyU, r = 0.5 [16]: 1.11 °C; log Ks ([17]; pH 7, per base): 5.87
CC(C)NC(=N)c1ccc2nc(-c3ccc(OCc4cn(CSc5ccccc5)nn4)cc3)[nH]c2c1 |  |  |  |  |  |  |  |  |  |  |  |  |  |  |  |  |  |  |  |  | log Ks ([10]; pH 7, per base): 7.20; ΔTm ([18]; error ±0.5 (shift within error), per base): 0.23 °C; log Ks ([17]; pH 7, per base): 5.96
COc1ccc(-n2cc(COc3ccc(-c4nc5ccc(C(=N)N)cc5[nH]4)cc3)nn2)cc1 |  |  |  |  |  |  |  |  |  |  |  |  |  |  |  |  |  |  |  |  | log Ks ([10]; pH 7, per base): 6.27; binding [17, 19]: weak
